Test results taken from patent US12234231B2, “EIF4E inhibitors and uses thereof” (PIC Therapeutics, Inc., priority 2021, dated 2025).

molecular target: T1, Human eIF4E (aa 28-217) (Homo sapiens, UniProt P06730); assay: Human eIF4E/4G2 binding assay (TR-FRET); details: purified eIF4E with biotin labeled 4G2 peptide, 4 hours preincubation at room temperature
T1 construct: Human eIF4E (aa 28-217) with a C-terminal His-tag; made in house
Procedure: Example 3. Compound Testing in Human eIF4E/4G2 Binding Assay
1004461 Human eIF4E (aa 28-217) with a C-terminal His-tag was expressed in E. coli in inclusion bodies. The protein was solubilized with 8 M urea and purified under denaturing conditions using nickel-charged HisTrap HP columns (GE Healthcare). The purified protein was then refolded by diluting in 20 mM Hepes pH 7.0, 0.5 M NaCl, 1 mM DTT, 1 mM EDTA, 0.5 M arginine plus 6 M urea, and then dialyzing overnight into the same buffer without the urea. The protein was further dialyzed into 20 mM Hepes, pH 6.5, 50 mM NaCl, 1 mM EDTA, 1 mM DTT, and concentrated using Hitrap SP sepharose FF columns (GE Healthcare). The concentrated protein was dialyzed into 20 mM Hepes, pH 7.0, 0.5M NaCl, 5 mM DTT and 10% glycerol, and stored at −80° C. until use.
Test compounds (3.43 mM stock in DMSO) were diluted 2-fold in series in DMSO (10 concentration points). Compound solutions (1.2 μl/well) were added into black 384-well polypropylene microplates (Matrix, Thermal Scientific). Twenty-two microliters per well of Assay Buffer (50 mM NaPi, pH 6.5, 50 mM KCl, 1 mM DTT and 0.5 mg/ml gamma globulin) and eight microliters per well of 82.5 nM purified eIF4E in Assay Buffer were added. The samples were incubated at room temperature (20-23° C.) for 4 hours. Biotin labeled 4G2 peptide (Ac-Lys-Gln-Tyr-Asp-Arg-Glu-Phe-Leu-Leu-Asp-Phe-Gln-Phe-Met-Pro-Lys(Aha-Bio)-NH2, 1.75 μM stock in DMSO) was diluted to 0.14 μM in Assay Buffer (without DTT) and 5 μl/well was added. The samples were incubated at room temperature for 20 min. Five microliters per well of 6.4 nM Eu-streptavidin (Eu-SA, Perkin Elmer) and 80 nM Allophycocyanin (APC)-anti His antibody (Columbia Biosciences) in Assay Buffer (without DTT) were then added and the samples were incubated at room temperature for 20 min.
Assay signals were monitored by reading excitation at 340 nm and emission fluorescence at 615 nm and 665 nm on an Envision reader (Perkin Elmer). Normalized TR-FRET (time-resolved fluorescence resonance energy transfer) assay signal (Rn) was calculated by the formula: Rn=[(A−Ba−C×D)/(D−Bd)]×(Dc−Bd) • Where A is the fluorescence intensity of the sample at 665 nm, • D is the fluorescence intensity of the sample at 615 nm, • Ba and Bd are plate backgrounds at 665 nm and 615 nm, respectively, • Dc is the fluorescence intensity of 0.78 nM Eu-SA in the assay buffer at 615 nm
The cross-talk factor (C) is determined by the following formula: C=(Ac−Ba)/(Dc−Bd) Where Ac is the fluorescence intensity of 0.78 nM Eu-SA in the assay buffer at 665 nm.
IC50 values were calculated using xLFit program (IDBS). Table 2 below lists EC50 of some compounds, wherein A represents IC50≤0.5 μM; B represents 0.5 uM<IC50≤1 μM; and C represents IC50>1 μM.

T1 sequence (P06730 28-217): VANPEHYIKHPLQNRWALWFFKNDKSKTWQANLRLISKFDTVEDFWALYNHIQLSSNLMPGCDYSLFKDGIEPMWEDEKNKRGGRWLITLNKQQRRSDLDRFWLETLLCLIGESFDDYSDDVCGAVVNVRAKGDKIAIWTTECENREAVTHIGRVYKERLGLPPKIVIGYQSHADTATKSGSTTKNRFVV

Row | Compound | IC50 [nM]
1 | COCCOc1cc(-c2nc(Nc3ncc(-c4cccs4)cc3C(=O)O)sc2CC(C)(C)C)ccc1Cl [I-95] | ≤ 500
2 | CNCCNC(=O)c1cc(-c2cccs2)cnc1Nc1nc(-c2ccc(OCCOC)c(F)c2)c(CC(C)C)s1 [I-56, 2-((4-(3-fluoro-4-(2-methoxyethoxy)phenyl)-5-isobutylthiazol-2-yl)amino)-N-(2-(methylamino)ethyl)-5-(thiophen-2-yl)nicotinamide] | > 1000
3 | COCCOc1ccc(-c2nc(Nc3cnc(-c4cccs4)cc3C(=O)O)sc2Cc2ccccc2)cc1F [I-63] | ≤ 500
4 | COCCOc1ccc(-c2nc(Nc3ncc(-c4cccs4)cc3C(=O)O)sc2CC(C)C)cc1F [I-30] | 500 to 1000
